Results from patent US3989687A, “4-Oxo-1-pyridinyl penicillin derivatives” (Richardson-Merrell Inc., priority 1975, dated 1976).
≈ marks a conversion by molar mass, not a printed value. Where a name gives a salt, the structure may show the parent alone. Read-outs that look alike come from different tables or passages of the source.

Experiments:
Staphylococcus aureus = assay: in vitro agar plate filter paper disc test, zones of inhibition: Staphylococcus aureus; assay type: cell-based; conditions: read-out: Minimal inhibiting concentration, Staphylococcus aureus
Protocol: (§1) Specific nutrient agar plates are completely innoculated with the various test organisms. Filter paper discs are placed on the surface of the agar and wetted with 0.1 ml. of a solution containing 10, 100 and 1,000 micrograms of the test compound. Zones of inhibition of microbial growth are used to indicate the antibacterial activity of the test compound against the various test organisms employed.
(§2) The following table summarizes the in vitro activity of the following representative compounds: 6-[2-(4-oxo-1-pyridinyl)acetylamino]penicillanicacid, sodium salt (1), 7-[2-(4-oxo-1-pyridinyl)acetylamino]desacetoxycephalosporanic acid (2), 6-[2-(3,5-diiodo-4-oxo-1-pyridinyl)acetylamino]penicillanic acid, sodium salt (3), 7-[2-(2,6-dimethyl-4-oxo-1-pyridinyl)acetylamino]desacetoxycephalosporanicacid, sodium salt (4), 7-[2-(4-oxo-1-pyridinyl)acetylamino]cephalosporanicacid, sodium salt (5) and 6-[2-(4-oxo-1-quinolinyl)acetylamino]penicillanic acid, sodium salt (6).

[1] = test system: Salmonella schottmuelleri; assay: in vitro agar plate filter paper disc test, zones of inhibition: Salmonella schottmuelleri; assay type: cell-based; conditions: read-out: Minimal inhibiting concentration, Salmonella schottmuelleri
Protocol: as §1, §2

Streptococcus pyogenes = assay: in vitro agar plate filter paper disc test, zones of inhibition: Streptococcus pyogenes; assay type: cell-based; conditions: read-out: Minimal inhibiting concentration, Streptococcus pyogenes
Protocol: as §1, §2

[2] = test system: (Penicillinase Producing) Staphylococcus aureus; assay: in vitro agar plate filter paper disc test, zones of inhibition: penicillinase producing Staphylococcus aureus; assay type: cell-based; conditions: read-out: Minimal inhibiting concentration, (Penicillinase Producing) Staphylococcus aureus
Protocol: as §1, §2

acid resistance = assay type: physicochemical
[3] = in vitro, 0.1 ml. of a solution containing 10, 100 and 1,000 micrograms on filter paper discs
[4] = in vitro, penicillinase producing strain, 0.1 ml. of a solution containing 10, 100 and 1,000 micrograms on filter paper discs

Row | Compound | MIC (Staphylococcus aureus) | MIC [1] | MIC (Streptococcus pyogenes) | MIC [2] | Acid Resistance (acid resistance) | MIC (Staphylococcus aureus; [3]) | MIC [1, 3] | MIC (Streptococcus pyogenes; [3]) | MIC [2, 4]
1 | CC1(C)S[C@@H]2C(NC(=O)Cn3ccc(=O)cc3)C(=O)N2[C@H]1C(=O)[O-].[Na+] (stereo partly drawn) [(1), 6-[2-(4-oxo-1-pyridinyl)acetylamino]penicillanicacid, sodium salt] | 10 µg/mL | 100 µg/mL | 1000 µg/mL | 1000 µg/mL | Yes |  |  |  | 
2 | CC1=C(C(=O)O)N2C(=O)C(NC(=O)Cn3ccc(=O)cc3)C2SC1 (stereo not drawn) [(2), 7-[2-(4-oxo-1-pyridinyl)acetylamino]desacetoxycephalosporanic acid] |  |  |  |  | Yes | 1000 µg/mL (≈ 2860 µM) | > 1000 µg/mL | 1000 µg/mL (≈ 2860 µM) | > 1000 µg/mL
3 | CC1(C)S[C@@H]2C(NC(=O)Cn3cc(I)c(=O)c(I)c3)C(=O)N2[C@H]1C(=O)[O-].[Na+] (stereo partly drawn) [(3), 6-[2-(3,5-diiodo-4-oxo-1-pyridinyl)acetylamino]penicillanic acid, sodium salt] | 10 µg/mL | 100 µg/mL | > 1000 µg/mL | > 1000 µg/mL | Yes |  |  |  | 
4 | CC1=C(C(=O)O)N2C(=O)C(NC(=O)Cn3c(C)cc(=O)cc3C)C2SC1 (stereo not drawn) [(4), 7-[2-(2,6-dimethyl-4-oxo-1-pyridinyl)acetylamino]desacetoxycephalosporanicacid, sodium salt] |  |  |  |  | Yes | 1000 µg/mL | > 1000 µg/mL | > 1000 µg/mL | > 1000 µg/mL
5 | CC(=O)OCC1=C(C(=O)O)N2C(=O)C(NC(=O)Cn3ccc(=O)cc3)C2SC1 (stereo not drawn) [(5), 7-[2-(4-oxo-1-pyridinyl)acetylamino]cephalosporanicacid, sodium salt] |  |  |  |  | Yes | 10 µg/mL | 100 µg/mL | 100 µg/mL | 1000 µg/mL
6 | CC1(C)S[C@@H]2C(NC(=O)Cn3ccc(=O)c4ccccc43)C(=O)N2[C@H]1C(=O)[O-].[Na+] (stereo partly drawn) [(6), 6-[2-(4-oxo-1-quinolinyl)acetylamino]penicillanic acid, sodium salt] | 10 µg/mL | 100 µg/mL | 1000 µg/mL | 1000 µg/mL | Yes |  |  |  | 
